Where “and” joins values, the source holds several entries; their conditions need not be identical. Equal values may be shown once. Read-outs that look alike come from different tables or passages of the source.
Tests used:
human CB2 receptors = molecular target: T1, human CB2 receptors (Homo sapiens, UniProt P34972); test: Cannabinoid receptor [3H]CP-55,940 displacement binding assay, CB2
T1 construct: expressed in transfected cells; host or cells: CHO cells
Procedure: The affinities of the compounds for CB1 and CB2 receptors were examined using displacement assays, as previously described. Briefly, cell membranes from CHO cells expressing human CB1 or human CB2 receptors were isolated using differential centrifugation. Test compounds reconstituted in DMSO and were incubated with the isolated membrane in binding buffer (50 mM Tris-HCl, 1 mM EDTA, 3 mM MgCl2, 5 mg/mL BSA, pH 7.4) along with 2.5 nM [^3H]CP-55,940. Total binding was assessed in the presence of equal concentration of DMSO, while non-specific binding was determined in the presence of 10 μM CP-55,940, and background binding was determined in wells lacking membrane. Following incubation at 30 °C for 60 min, the binding reactions were terminated by vacuum filtration through Whatman GF/C filters. The filters were then washed twice with ice-cold buffer (50 mM Tris-HCl, 1 mg/mL BSA). Liquid scintillation cocktail was added to each well and the total tritiated counts per minute were analyzed using a TopCount scintillation counter. Background counts were subtracted from all wells and the percent displacement from total binding was calculated.
The compounds were initially screened at 10 μM concentrations. If they produced at least ±30% displacement of the radioligand, then full competition curves were constructed. Ki values were calculated using GraphPad Prism (San Diego, CA, USA) and Kd values determined using a 1 site fit. All assays were run in technical and biological replicates so that the n = 5–6.

[1] = Stability studies under physiological pH; assay type: physicochemical; details: 4k compared to 4q, data not reported
[2] = PK evaluation in CD-1 mice (plasma, brain, kidney, liver; i.v. and oral); assay type: in vivo; details: for bioavailability: oral vs intravenous 5 mg/kg
Procedure: The primary stock solutions of 4k and phenacetin (internal standard, IS) were prepared in methanol at a concentration of 1.0 mg/mL. Working solutions of calibration standards and quality control (QC) samples were prepared by dilution with methanol and stored at −20 °C. A working stock of the IS solution (20 ng/mL) was prepared in methanol and stored at −20 °C.
Chromatography was performed on an Acquity^TM UPLC system (Waters Corp, Milford, MA, USA) with an autosampler temperature at 10 °C. Waters Acquity UPLC® HSS C18 column (3.0 × 50 mm, 1.8 µm particle size) was used for chromatographic separation with linear gradient elution consisting of (A) 90% acetonitrile and (B) 10% 0.2% formic acid in Milli-Q water as mobile phases. The flow rate was set at 0.30 mL/min, and the injection volume was 2 µL.
An Acquity Tandem Quadrupole Mass Detector (Xevo TQ-S; Waters Corp, Milford, MA, USA) in positive electrospray ionization mode was used for mass spectrometric detection. For collision-induced dissociation, argon was used as collision gas. The cone voltage and collision energy were set at 60 V and 34 V for 4k and 46 V and 26 V for the IS, respectively. Quantification was performed using the monitoring of multiple reaction monitoring (MRM) of following transitions: m/z 409.0/220.9 for 4k and m/z 180.0/92.7 for IS. Retention times of 4k and IS were 2.85 and 1.81 min, respectively.
A simple protein precipitation method was followed for extraction of 4k from mice plasma. To an aliquot of 50 μL of plasma or tissue (brain, liver, or kidney) samples, IS solution (5 μL of 20 ng/mL) was added and mixed for 15 s on a cyclomixer (Thermo Scientific, Indianapolis, IN, USA). After precipitation with 200 μL of acetonitrile, the mixture was vortexed for 2 min, followed by centrifugation for 10 min at 14,000 rpm on an accuSpin Micro 17R (Fisher Scientific, Suwanee, GA, USA) at 5 °C. An aliquot of ~150 μL of clear supernatant was transferred into vials and 2 μL was injected onto LC-MS/MS system for analysis.
Male CD-1 mice (N = 48) were obtained from Envigo (St. Louis, MO, USA) and maintained on a 12:12 h reversed dark/light cycle (lights off at 07:00 h) with ad libitum access to food and water. Following a ~4 h fast, animals were randomly assigned to one of two groups. Group I and II animals (n = 24/group, weight range 25–30 g) received compound 4k (5 mg/kg) orally (in the form of a solution, prepared using 10% absolute alcohol, 10% cremophor, and 80% Milli-Q water) or intravenously (i.v., using solution formulation comprising 10% absolute alcohol, 10% cremophor, and 80% normal saline), respectively. At 0.5, 1, 2, 4, 8, and 24 h post administration, animals were euthanized, blood was collected in K2. EDTA-containing polypropylene tubes and, tissues were collected (brain, liver, and kidney). Plasma was harvested by centrifuging the blood using Eppendorf 5430R Centrifuge (Germany) at 5000 rpm for 5 min and stored frozen at −80 °C until analysis.
Brain, liver, and kidney tissues were homogenized in separate 15 mL round-bottom screw-capped vials in phosphate buffered saline (5 volumes of each tissue mass) with a homogenizer (Polytron®) and stored at −80 °C until analysis. Plasma or tissue homogenates (50 μL) were spiked with IS and processed as mentioned in sample preparation section.
Plasma and tissue concentration and time data of compound 4k were analyzed by a non-compartmental method using WinNonlin Version 5.3 (Pharsight Corporation, Mountain View, CA, USA).

[3] = male, CD-1, mouse, intravenous 5 mg/kg, plasma
[4] = male, CD-1, mouse, oral 5 mg/kg, plasma

T1 sequence (P34972 whole entry): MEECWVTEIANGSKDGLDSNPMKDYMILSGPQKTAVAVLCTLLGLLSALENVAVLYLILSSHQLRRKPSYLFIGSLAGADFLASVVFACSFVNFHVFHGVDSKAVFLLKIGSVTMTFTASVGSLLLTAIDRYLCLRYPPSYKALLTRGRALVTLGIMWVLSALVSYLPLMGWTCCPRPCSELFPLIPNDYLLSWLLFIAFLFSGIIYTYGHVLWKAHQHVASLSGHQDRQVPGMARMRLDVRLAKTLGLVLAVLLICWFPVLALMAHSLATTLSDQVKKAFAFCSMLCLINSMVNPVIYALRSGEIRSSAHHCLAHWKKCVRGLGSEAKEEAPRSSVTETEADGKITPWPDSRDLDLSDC

- inhibition at 10 µM (human CB2 receptors; 1 h, 10 µM compound, CHO cell membranes, 2.5 nM radioligand, read-out: Displacement of [3H]CP-55,940 from CB2): 84.6%
- Ki (human CB2 receptors; CB2, full competition curves vs [3H]CP-55,940): 146 nM
- AUC0–∞ ([2]; intravenous 5 mg/kg, brain): 5685 ng·h/g
- t1/2 ([2]; intravenous 5 mg/kg, brain, 5 mg/kg): 6.54 h
- AUC0–∞ ([2]; intravenous 5 mg/kg, kidney): 13272 ng·h/g
- AUC0–∞ ([2]; intravenous 5 mg/kg, liver): 19991 ng·h/g
- t1/2 ([2]; intravenous 5 mg/kg, liver, 5 mg/kg): 9.26 h
- clearance as share of hepatic blood flow in mice ([2]; intravenous 5 mg/kg, plasma): 26%
- t1/2 ([2]; intravenous 5 mg/kg, plasma, 5 mg/kg): 6.91 h
- Kp ([2]; male, CD-1, mouse, brain and plasma, intravenous 5 mg/kg, read-out: mean brain to plasma ratio): 3.67
- Kp ([2]; male, CD-1, mouse, brain and plasma, oral 5 mg/kg, read-out: mean brain to plasma ratio): 4.61
- half-life ([2]; male, CD-1, mouse, brain, iv, 5 mg/kg, intravenous 5 mg/kg, brain, read-out: t1/2 (converted)): 6.5 h
- half-life ([2]; male, CD-1, mouse, brain, po, 5 mg/kg, oral 5 mg/kg, brain, read-out: t1/2 (converted)): 22.9 h
- Kp ([2]; male, CD-1, mouse, kidney and plasma, intravenous 5 mg/kg, read-out: mean kidney to plasma ratio): 14.5
- Kp ([2]; male, CD-1, mouse, kidney and plasma, oral 5 mg/kg, read-out: mean kidney to plasma ratio): 7.25
- half-life ([2]; male, CD-1, mouse, kidney, iv, 5 mg/kg, intravenous 5 mg/kg, kidney, read-out: t1/2 (converted)): 10.2 h
- half-life ([2]; male, CD-1, mouse, kidney, po, 5 mg/kg, oral 5 mg/kg, kidney, read-out: t1/2 (converted)): 16.7 h
- Kp ([2]; male, CD-1, mouse, liver and plasma, intravenous 5 mg/kg, read-out: mean liver to plasma ratio): 11.5
- Kp ([2]; male, CD-1, mouse, liver and plasma, oral 5 mg/kg, read-out: mean liver to plasma ratio): 9.89
- half-life ([2]; male, CD-1, mouse, liver, iv, 5 mg/kg, intravenous 5 mg/kg, liver, read-out: t1/2 (converted)): 9.3 h
- half-life ([2]; male, CD-1, mouse, liver, kidney, other: oral or intravenous, 5 mg/kg, oral or intravenous route, liver and kidneys, read-out: elimination half-lives in the liver and kidneys): 9.3 to 16.7 h
- half-life ([2]; male, CD-1, mouse, liver, po, 5 mg/kg, oral 5 mg/kg, liver, read-out: t1/2 (converted)): 13 h
- half-life ([2]; male, CD-1, mouse, plasma, iv, 5 mg/kg, intravenous 5 mg/kg, plasma, read-out: t1/2 (converted)): 6.9 h
- half-life ([2]; male, CD-1, mouse, plasma, po, 5 mg/kg, oral 5 mg/kg, plasma, read-out: t1/2 (converted)): 16.4 h
- Cmax ([2]; male, CD-1, mouse, intravenous 5 mg/kg, brain, read-out: Cmax or C0): 2260 ng/g
- Vd ([2]; male, CD-1, mouse, intravenous 5 mg/kg, brain, read-out: volume of distribution): 8.82 ± 2.43 L/kg
- Cmax ([2]; male, CD-1, mouse, intravenous 5 mg/kg, kidney, read-out: Cmax or C0): 4720 ng/g
- Vd ([2]; male, CD-1, mouse, intravenous 5 mg/kg, kidney, read-out: volume of distribution): 5.63 ± 0.37 L/kg
- Cmax ([2]; male, CD-1, mouse, intravenous 5 mg/kg, liver, read-out: Cmax or C0): 13500 ng/g
- Vd ([2]; male, CD-1, mouse, intravenous 5 mg/kg, liver, read-out: volume of distribution): 3.38 ± 0.18 L/kg
- AUC(0-inf) [2, 3]: 4020 ng·h/mL
- clearance [2, 3]: 23.5 mL/min/kg
- C0 ([2]; male, CD-1, mouse, intravenous 5 mg/kg, plasma, read-out: Cmax or C0): 4340 ng/mL
- Vd ([2]; male, CD-1, mouse, intravenous 5 mg/kg, plasma, read-out: Vd): 14.3 L/kg
- Tmax ([2]; male, CD-1, mouse, oral 5 mg/kg, brain): 1.25 h
- Cmax ([2]; male, CD-1, mouse, oral 5 mg/kg, brain, read-out: Cmax): 602 ng/g
- Tmax ([2]; male, CD-1, mouse, oral 5 mg/kg, kidney): 0.75 h
- Cmax ([2]; male, CD-1, mouse, oral 5 mg/kg, kidney, read-out: Cmax): 795 ng/g
- Tmax ([2]; male, CD-1, mouse, oral 5 mg/kg, liver): 0.75 h
- Cmax ([2]; male, CD-1, mouse, oral 5 mg/kg, liver, read-out: Cmax): 1890 ng/g
- AUC(0-inf) [2, 4]: 739 ng·h/mL
- Tmax [2, 4]: 0.88 h
- Cmax ([2]; male, CD-1, mouse, oral 5 mg/kg, plasma, read-out: Cmax): 198 ng/mL
- bioavailability ([2]; male, CD-1, mouse, brain, read-out: F (apparent oral bioavailability)): 42.5 ± 5.75%
- bioavailability ([2]; male, CD-1, mouse, plasma, read-out: F (oral bioavailability)): 18%
- AUC0–∞ ([2]; oral 5 mg/kg, brain, 5 mg/kg): 3069 ± 64 ng·h/g and 3069 ng·h/g
- AUC0–∞ ([2]; oral 5 mg/kg, kidney, 5 mg/kg): 5223 ± 44.75 ng·h/g and 5223 ng·h/g
- AUC0–∞ ([2]; oral 5 mg/kg, liver, 5 mg/kg): 6423 ± 571 ng·h/g and 6423 ng·h/g
SMILES: O=C1c2ccc(Cl)cc2N/C(=N/N=C/c2cc3ccccc3s2)[C@@H]2CCCN12 [Compound 4k]
- tolerance under physiological pH (stability) [1]: better tolerance
